We go through nine compounds from US4419517A, “4a-Aryl-trans-decahydroisoquinolines” (E. I. Du Pont de Nemours & Co., priority 1975, dated 1983).

Broadly, the ED50 is the dose that gives a 50% effect, or the effect in half of the subjects.

For data set [1], the system named is phenylquinone-induced stretching or writhing syndrome. Put plainly: Phenylquinone writhing test, oral, female white mice (modified from Siegmund et al.). Type of data set: in vivo. Conditions: for analgesic activity of the optical isomers, in words: dextro and laevo forms; for ED50 (optical isomers, phenylquinone writhing test described in Example A): optical isomers of N-methyl-4a-phenyl-trans-decahydroisoquinoline, mice, test as in Example A; for ED50: Mus musculus, po, suspended in 1% Methocel, fasted female white mice, phenylquinone i.p. 23 or 30 min later, observed 10 min, moving average method, read-out: oral ED50 (effective analgesic dose for 50% of the mice). As to the method:
In a standard mouse test modified from Siegmund et al. [Proc. Soc. Exp. Biol. Med. 95, 729 (1957)], a test compound suspended in 1% Methocel® was given orally to fasted (17-21 hours) female white mice, 5-20 animals per double blind test. Aqueous (0.01%) phenyl-p-benzoquinone (phenylquinone) was injected intraperitoneally at 23 or 30 minutes later using 0.25 ml per mouse. […] The effective analgesic dose for 50% of the mice (ED50) was calculated by the moving average method of Weil [Biometrics 8, 249 (1952)].The oral ED50 dosages of several compounds of the invention are: […]

The subject of another data set is Straub tail. As to the kind of experiment: Straub tail in mice. Conditions: dose not stated. Type of data set: in vivo. From the text:
Included in this group are the compounds of examples 9, 10, 16 and 18.

The conditions of data set [2]: J. Am. Chem. Soc. 72, 712 (1950); cited from earlier work.

As for `CN1CC[C@@]2(c3ccccc3)CCCC[C@@H]2C1` (relative stereo) [Dextro (Ex. 2H-2), dextro-N-Methyl-4a-phenyl-trans-decahydroisoquinoline], the “analgesic activity of the optical isomers, in words” value in data set [1] (phenylquinone writhing test) is “active”. Moreover, the “analgesic effectiveness of dextro form compared with laevo form” value in data set [1] (dextro vs laevo form, phenylquinone writhing test) is reported as “significantly more effective than the laevo form”. Also, in data set [1], the “ED50 (optical isomers, phenylquinone writhing test described in Example A)” value was 3.5 mg/kg.

Consider `COc1cccc([C@@]23CCCC[C@H]2CN(C)CC3)c1` (relative stereo) [Example 3-E, N-Methyl-4a-(m-methoxyphenyl)-trans-decahydroisoquinoline], for which, in data set [1], the ED50 is 3 mg/kg.

With `CN1CC[C@]2(c3cccc(O)c3)CCCC[C@H]2C1` (relative stereo) [Example 4, N-methyl-4a-(m-hydroxyphenyl)-trans-decahydroisoquinoline], the ED50 in data set [1] was determined as 2.3 mg/kg.

On to `COc1cccc([C@@]23CCCC[C@H]2CN(CC2CC2)CC3)c1` (relative stereo) [Example 9, N-Cyclopropylmethyl-4a-(m-methoxyphenyl)-trans-decahydroisoquinoline], for which the ED50 in data set [1] worked out at 8 mg/kg. Moreover, in the data set on Straub tail, the “Straub tail in mice (evidence for appearing to be nonaddicting)” value (from here on “Straub tail in mice”) is on record as “do not produce the Straub tail”.

With `Oc1cccc([C@@]23CCCC[C@H]2CN(CC2CC2)CC3)c1` (relative stereo) [Example 10, N-Cyclopropylmethyl-4a-(m-hydroxyphenyl)-trans-decahydroisoquinoline], the “Straub tail in mice” value with Straub tail is on record as “do not produce the Straub tail”.

Turning to `CCCCCCN1CC[C@]2(c3cccc(O)c3)CCCC[C@H]2C1` (relative stereo) [Example 16, N-(n-Hexyl)-4a-(m-hydroxyphenyl)-trans-decahydroisoquinoline], in the data set with Straub tail, the “Straub tail in mice” value was “do not produce the Straub tail”.

For the compound `CN1CC[C@@]2(c3ccccc3)CCCC[C@@H]2C1` (relative stereo) [Laevo (Ex. 2H-1), laevo-N-Methyl-4a-phenyl-trans-decahydroisoquinoline], the “analgesic activity of the optical isomers, in words” value in data set [1] (phenylquinone writhing test) is given as “active”. In data set [1], the “ED50 (optical isomers, phenylquinone writhing test described in Example A)” value was determined as 23.0 mg/kg.

As for `CN1CC[C@]2(c3ccccc3)CCCC[C@@H]2C1` (relative stereo) [N-methyl-4a-phenyl-cis-decahydroisoquinoline], the analgesic activity result in data set [2] was “low analgesic activity”.

Regarding `COc1cccc(C23CCN(CC4CC4)CC2CCC(C)C3)c1` (stereo not drawn) [Example 18, N-cyclopropylmethyl-4a-(m-methoxyphenyl)-6-methyl-trans-decahydroisoquinoline], the “Straub tail in mice” value in the data set with Straub tail was “do not produce the Straub tail”.
